TGI and GI50 data for six compounds are collected here from PubChem BioAssay (NCI).

Molecules are shown by their SMILES.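 A five-concentration, 48-hour dose response in 96-well plates underlies each endpoint, interpolated linearly between surrounding concentrations. GI50 = concentration required for 50% inhibition of growth. TGI: total growth inhibition.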 Some results are limits rather than exact numbers.

Test systems include HS 578T breast; A498 renal; NCI/ADR-RES ovarian; PC-3 prostate; NCI-H460 lung; T-47D breast; MALME-3M melanoma; RXF 393 renal; OVCAR-5 ovarian; NCI-H226 lung.
Assay in all cases: NCI tumour cell line growth inhibition, 48 h

For the compound `NC(=O)N/N=C1/CCC(O)CC1CC(=O)O` (stereo not drawn), the TGI with HS 578T breast, in the experiment with A498 renal, with NCI/ADR-RES ovarian, in the experiment with PC-3 prostate, with NCI-H460 lung and in the experiment on T-47D breast was more than 100 µM throughout. The TGI in the experiment with MALME-3M melanoma, in the experiment with RXF 393 renal, in the experiment on OVCAR-5 ovarian and in the experiment with NCI-H226 lung was more than 100 µM in each case.
On to `CC(C)CCCC(C)[C@H]1CCC2[C@@H]3CCC4Cc5nc6c(nc5C[C@]4(C)C3CC[C@@]21C)CC1CC[C@@H]2C(CC[C@@]3(C)C2CC[C@@H]3C(C)CCCC(C)C)[C@@]1(C)C6` (stereo partly drawn), for which the TGI in the experiment on HS 578T breast, with A498 renal, with NCI/ADR-RES ovarian, in the experiment with PC-3 prostate, in the experiment with NCI-H460 lung and in the experiment with T-47D breast was more than 100 µM throughout. The TGI with MALME-3M melanoma, in the experiment on RXF 393 renal, in the experiment with OVCAR-5 ovarian and in the experiment with NCI-H226 lung was more than 100 µM in each case.
In the case of `COc1cc(C(=O)c2c(-c3ccccc3)oc3c(OC)cccc23)cc(OC)c1OC`, the GI50 in the experiment with HS 578T breast is 0.0984 µM; with A498 renal, 0.0212 µM; with NCI/ADR-RES ovarian, 0.0409 µM; in the experiment on PC-3 prostate it was 0.0557 µM; with NCI-H460 lung it was 0.0518 µM; in the experiment on T-47D breast, 31.8 µM. The GI50 in the experiment with MALME-3M melanoma is 1.32 µM; in the experiment on RXF 393 renal, 0.0414 µM; in the experiment on OVCAR-5 ovarian, 0.158 µM; in the experiment on NCI-H226 lung, 0.236 µM. Besides, the TGI with HS 578T breast is more than 24.1 µM; in the experiment with A498 renal it was 0.0696 µM; with PC-3 prostate, more than 100 µM; in the experiment on NCI-H460 lung it was more than 100 µM; with T-47D breast, more than 100 µM; with MALME-3M melanoma, more than 100 µM. Besides, the TGI in the experiment on RXF 393 renal is 4.69 µM; in the experiment on OVCAR-5 ovarian, more than 100 µM.
Turning to `CC1=C(C(=O)Nc2ccc3n[nH]c(C)c3c2)C(c2ccc(C(F)(F)F)cc2)CC(=O)N1` (stereo not drawn), the GI50 is 0.305 µM in the experiment with HS 578T breast; 6.3 µM in the experiment with A498 renal; more than 25 µM with NCI/ADR-RES ovarian; more than 25 µM in the experiment on PC-3 prostate; 16.5 µM in the experiment with NCI-H460 lung; more than 25 µM in the experiment with T-47D breast. Besides, the GI50 in the experiment on MALME-3M melanoma was 13.6 µM; in the experiment on RXF 393 renal, 6.7 µM; with OVCAR-5 ovarian, 16.2 µM; in the experiment with NCI-H226 lung it was 0.709 µM. Besides, the TGI was 19.5 µM in the experiment on HS 578T breast; more than 25 µM with A498 renal; more than 25 µM with NCI/ADR-RES ovarian; more than 25 µM in the experiment on PC-3 prostate; more than 25 µM with NCI-H460 lung; more than 25 µM in the experiment with T-47D breast. The TGI in the experiment on MALME-3M melanoma is more than 25 µM; in the experiment on RXF 393 renal, more than 25 µM; in the experiment with OVCAR-5 ovarian, more than 25 µM; in the experiment on NCI-H226 lung, more than 17.7 µM.
Consider `O=C1/C(=C/c2ccccc2)CN(C(=O)CCN2CCOCC2)C/C1=C\c1ccccc1`, for which the TGI in the experiment on HS 578T breast stood at 13.1 µM; with A498 renal, 25.5 µM; with NCI/ADR-RES ovarian, 9.46 µM; in the experiment with PC-3 prostate it was 8.51 µM; with NCI-H460 lung, 5.47 µM; in the experiment with T-47D breast, 7.35 µM. In addition, the TGI with MALME-3M melanoma is 6.32 µM; in the experiment on RXF 393 renal, 8.87 µM; with OVCAR-5 ovarian it was 16.2 µM; in the experiment with NCI-H226 lung, 15 µM.
Take `Cn1ncnc1[C@H]1c2n[nH]c(=O)c3cc(F)cc(c23)N[C@@H]1c1ccc(F)cc1`: the GI50 in the experiment with HS 578T breast is more than 100 µM; in the experiment with A498 renal, 28.6 µM; in the experiment on NCI/ADR-RES ovarian, more than 100 µM; with PC-3 prostate, more than 100 µM; with NCI-H460 lung it was 0.0354 µM; in the experiment with T-47D breast it was more than 100 µM. Besides, the GI50 in the experiment on MALME-3M melanoma was more than 100 µM; in the experiment with RXF 393 renal, 25.9 µM; with OVCAR-5 ovarian, more than 100 µM; in the experiment with NCI-H226 lung it was more than 100 µM. Also, the TGI with HS 578T breast, in the experiment on A498 renal, with NCI/ADR-RES ovarian, in the experiment with PC-3 prostate, in the experiment on NCI-H460 lung and in the experiment with T-47D breast was more than 100 µM in each case. For the same compound, the TGI in the experiment on MALME-3M melanoma, with RXF 393 renal, in the experiment on OVCAR-5 ovarian and in the experiment on NCI-H226 lung was more than 100 µM throughout.
